Experimental data: ChEMBL document CHEMBL1201862, “PubChem BioAssay data set” (2004)
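A five-concentration, 48-hour dose response in 96-well plates underlies each endpoint, interpolated linearly between surrounding concentrations. The concentration for 50% growth inhibition is given as GI50.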 Active and inactive are the calls of the source. Rule as the data show it: active = GI50 up to about 1.1 µM and inactive = higher.

How the values were obtained:
Assay in all cases: DTP human tumour cell line panel, 48 h
[1] = test system: NCI-H522
[2] = test system: OVCAR-8
[3] = test system: SF-295
[4] = test system: 786-0
[5] = test system: SF-539
[6] = test system: SK-OV-3
[7] = test system: COLO 205
[8] = test system: K562
[9] = test system: UO-31
[10] = test system: SNB-75
[11] = test system: EKVX
[12] = test system: Malme-3M
[13] = test system: TK-10
[14] = test system: LOX IMVI
[15] = test system: SN12C

Measured: GI50

NC(=S)/N=C(/c1nc2ccc(Cl)cc2nc1O)C(O)c1ccccc1Cl (stereo unspecified)
inactive: [1] > 100 µM | [2] > 100 µM | [3] > 100 µM | [4] > 100 µM | [5] > 100 µM | [6] > 100 µM | [7] > 100 µM | [8] > 100 µM | [9] > 100 µM | [10] > 100 µM | [11] > 100 µM | [12] > 100 µM | [13] > 100 µM | [14] > 100 µM

Cc1cc(C)nc(NS(=O)(=O)c2ccc(NC(=O)c3cccc4c(Nc5ccc(S(N)(=O)=O)cc5)c5ccccc5nc34)cc2)n1
inactive: [1] 13 µM | [2] 30.3 µM | [3] > 66.5 µM | [15] 16.1 µM | [4] 50.8 µM | [5] 3.67 µM | [6] 15.2 µM | [7] 26.6 µM | [8] 7.85 µM | [9] > 100 µM | [10] 5.46 µM | [11] > 100 µM | [12] 18.2 µM | [13] > 74.6 µM | [14] 19.4 µM

CCCCCCCC1(c2ccc(N)cc2)CCC(=O)NC1=O (stereo unspecified)
inactive: [1] 27.2 µM | [2] 35.8 µM | [3] 30.4 µM | [15] 30 µM | [4] 28.4 µM | [6] 33 µM | [7] 21.9 µM | [8] 28.4 µM | [9] 20.5 µM | [10] 22.5 µM | [11] 23.5 µM | [12] 28.1 µM | [13] 49.7 µM | [14] 33 µM

CC1=NN(C(=O)c2ccc(Cl)cc2)C(=O)/C1=C/c1ccc(O)cc1
inactive: [1] > 100 µM | [2] > 100 µM | [3] > 100 µM | [15] > 100 µM | [4] > 100 µM | [5] > 100 µM | [6] > 100 µM | [7] > 100 µM | [8] > 100 µM | [9] > 100 µM | [11] > 100 µM | [12] > 100 µM | [13] > 100 µM | [14] > 100 µM

COC(=N)c1csc(C2OC(CO)C(O)C2O)n1 (stereo unspecified)
inactive: [1] > 100 µM | [2] > 100 µM | [3] > 100 µM | [15] > 100 µM | [4] > 100 µM | [5] > 100 µM | [6] > 100 µM | [7] > 100 µM | [8] > 100 µM | [9] 50.7 µM | [11] > 100 µM | [12] > 100 µM | [13] > 100 µM | [14] > 100 µM
